Measured values: the NIST ThermoML archive (doi:10.1021/je5010214)

Details: Liquid, Vibrating tube method

CC(C)CO [2-methyl-1-propanol]
Details	mass density [kg/m3]
283.15 K, 89.4 kPa	809.726
283.15 K, 478.2 kPa	810.123
283.15 K, 489.9 kPa	810.142
283.15 K, 930.2 kPa	810.437
283.15 K, 1027.3 kPa	810.557
283.15 K, 2172.1 kPa	811.348
283.15 K, 2992.9 kPa	811.865
283.15 K, 4993.8 kPa	813.245
283.15 K, 6906.9 kPa	814.669
283.15 K, 8995.7 kPa	816.167
283.15 K, 10003 kPa	816.885
283.15 K, 12183 kPa	818.287
283.15 K, 14910 kPa	820.439
283.15 K, 17915 kPa	822.056
283.15 K, 20110 kPa	823.875
283.15 K, 22168 kPa	825.177
283.15 K, 24886 kPa	826.625
283.15 K, 27713 kPa	828.29
283.15 K, 30148 kPa	829.717
283.15 K, 32117 kPa	830.745
283.15 K, 33086 kPa	831.522
283.15 K, 33288 kPa	831.507
283.15 K, 34077 kPa	832.073
283.15 K, 35107 kPa	832.469
283.15 K, 38030 kPa	834.322
283.15 K, 44591 kPa	837.752
283.15 K, 54994 kPa	843.308
283.15 K, 57756 kPa	844.723
283.15 K, 59886 kPa	845.575
283.15 K, 61822 kPa	846.524
283.15 K, 64894 kPa	848.158
283.16 K, 289.9 kPa	810.056
283.16 K, 39967 kPa	835.34
283.16 K, 41406 kPa	835.909
283.16 K, 48034 kPa	839.7
283.16 K, 49830 kPa	840.462
283.16 K, 51952 kPa	841.796
283.16 K, 66072 kPa	848.566
288.15 K, 85.3 kPa	806.159
288.15 K, 351.1 kPa	806.381
288.15 K, 718.6 kPa	806.519
288.15 K, 928.3 kPa	806.632
288.15 K, 1132.3 kPa	807.006
288.15 K, 1931.6 kPa	807.42
288.15 K, 3433.9 kPa	808.429
288.15 K, 5023.9 kPa	809.62
288.15 K, 6893.9 kPa	810.983
288.15 K, 8406.4 kPa	812.175
288.15 K, 12498 kPa	814.345
288.15 K, 13061 kPa	815.035
288.15 K, 15159 kPa	815.414
288.15 K, 16159 kPa	816.818
288.15 K, 17078 kPa	817.715
288.15 K, 19062 kPa	818.283
288.15 K, 20120 kPa	819.399
288.15 K, 21983 kPa	820.3
288.15 K, 22948 kPa	821.319
288.15 K, 24955 kPa	821.837
288.15 K, 31002 kPa	825.774
288.15 K, 36056 kPa	828.477
288.15 K, 38602 kPa	829.859
288.15 K, 40698 kPa	831.363
288.15 K, 42984 kPa	832.313
288.15 K, 44991 kPa	833.694
288.15 K, 46862 kPa	834.848
288.15 K, 49740 kPa	835.692
288.15 K, 53748 kPa	837.321
288.15 K, 55203 kPa	839.369
288.15 K, 60810 kPa	841.135
288.15 K, 65611 kPa	844.144
288.16 K, 549.3 kPa	806.494
288.16 K, 9959.1 kPa	813.184
288.16 K, 27092 kPa	823.174
288.16 K, 29078 kPa	824.509
288.16 K, 33729 kPa	826.936
288.16 K, 57016 kPa	840.129
288.16 K, 62338 kPa	843.086
293.15 K, 63.4 kPa	802.054
293.15 K, 194.5 kPa	802.316
293.15 K, 662.6 kPa	802.599
293.15 K, 5367.8 kPa	806.019
293.15 K, 5979.3 kPa	806.327
293.15 K, 8031.4 kPa	807.842
293.15 K, 12279 kPa	811.587
293.15 K, 16110 kPa	814.191
293.15 K, 18001 kPa	815.385
293.15 K, 30253 kPa	822.999
293.15 K, 32967 kPa	824.811
293.15 K, 42984 kPa	830.218
293.15 K, 44913 kPa	831.278
293.15 K, 47933 kPa	833.008
293.15 K, 50078 kPa	834.047
293.16 K, 310.4 kPa	802.406
293.16 K, 463.5 kPa	802.612
293.16 K, 1059.7 kPa	802.921
293.16 K, 2037.1 kPa	803.747
293.16 K, 2922 kPa	804.089
293.16 K, 3431.5 kPa	804.593
293.16 K, 5298.8 kPa	805.894
293.16 K, 7111.4 kPa	807.238
293.16 K, 9968.5 kPa	809.474
293.16 K, 14057 kPa	812.743
293.16 K, 20853 kPa	817.066
293.16 K, 22118 kPa	818.157
293.16 K, 24057 kPa	819.188
293.16 K, 25922 kPa	820.412
293.16 K, 27187 kPa	821.228
293.16 K, 34602 kPa	825.683
293.16 K, 38051 kPa	827.567
293.16 K, 40103 kPa	828.763
293.16 K, 52135 kPa	835.387
293.16 K, 55036 kPa	836.79
293.16 K, 58004 kPa	838.271
293.16 K, 60107 kPa	839.502
293.16 K, 62061 kPa	840.325
293.16 K, 66037 kPa	842.335
298.15 K, 122.4 kPa	798.281
298.15 K, 162.6 kPa	798.371
298.15 K, 405.5 kPa	798.562
298.15 K, 632.8 kPa	798.678
298.15 K, 956.4 kPa	798.832
298.15 K, 6988.8 kPa	803.491
298.15 K, 14555 kPa	809.311
298.15 K, 18284 kPa	812.068
298.15 K, 20164 kPa	813.104
298.15 K, 22781 kPa	814.894
298.15 K, 25076 kPa	816.275
298.15 K, 27604 kPa	817.904
298.15 K, 30046 kPa	819.519
298.15 K, 32326 kPa	821.055
298.15 K, 33317 kPa	821.248
298.15 K, 44911 kPa	827.946
298.15 K, 60006 kPa	836.063
298.15 K, 62079 kPa	837.121
298.15 K, 65330 kPa	838.566
298.15 K, 66093 kPa	839.052
298.16 K, 1152.2 kPa	799.011
298.16 K, 2046.3 kPa	799.798
298.16 K, 3021.1 kPa	800.42
298.16 K, 5107.4 kPa	801.927
298.16 K, 9044.3 kPa	804.777
298.16 K, 9996.8 kPa	805.681
298.16 K, 11947 kPa	807.14
298.16 K, 33072 kPa	821.357
298.16 K, 34997 kPa	822.338
298.16 K, 37948 kPa	823.936
298.16 K, 39972 kPa	825.207
298.16 K, 41983 kPa	826.345
298.16 K, 48045 kPa	829.528
298.16 K, 49997 kPa	830.783
298.16 K, 52020 kPa	832.399
298.16 K, 54851 kPa	833.381
298.16 K, 57898 kPa	835.245
303.15 K, 50.6 kPa	793.736
303.15 K, 974.4 kPa	794.496
303.15 K, 1922.5 kPa	795.367
303.15 K, 9012.3 kPa	801.25
303.15 K, 10062 kPa	802.346
303.15 K, 14908 kPa	805.823
303.15 K, 18109 kPa	808.133
